{"source": "patent US10945994B2", "about": "“Combinations comprising a pyrrolidine-2,5-dione IDO1 inhibitor and an anti-body” (Pfizer Inc., priority 2015, dated 2021)", "key": {"[1]": {"tested_on": "CT26 tumors", "assay": "CT26 syngeneic colon tumor model, combination with avelumab", "format": "in vivo, Balb/c mice", "conditions": "Compound 1 200 mg/kg BID, Avelumab 10 mg/kg", "description": "FIGS. 5A-5E show combinatorial anti-tumor effects of an IDO1 inhibitor and an anti-PD-L1 (avelumab) in the sc CT26 syngeneic mouse colon tumor model in Balb/c mice. […] FIGS. 5B-5E show the individual tumor growth curves.\nAvelumab is a fully human anti-PD-L1 IgG1 monoclonal antibody, and thus, is not optimized for mouse."}, "[2]": {"biological_target": "IDO1 (Homo sapiens (Human), UniProt P14902)", "sequence (P14902 whole entry)": "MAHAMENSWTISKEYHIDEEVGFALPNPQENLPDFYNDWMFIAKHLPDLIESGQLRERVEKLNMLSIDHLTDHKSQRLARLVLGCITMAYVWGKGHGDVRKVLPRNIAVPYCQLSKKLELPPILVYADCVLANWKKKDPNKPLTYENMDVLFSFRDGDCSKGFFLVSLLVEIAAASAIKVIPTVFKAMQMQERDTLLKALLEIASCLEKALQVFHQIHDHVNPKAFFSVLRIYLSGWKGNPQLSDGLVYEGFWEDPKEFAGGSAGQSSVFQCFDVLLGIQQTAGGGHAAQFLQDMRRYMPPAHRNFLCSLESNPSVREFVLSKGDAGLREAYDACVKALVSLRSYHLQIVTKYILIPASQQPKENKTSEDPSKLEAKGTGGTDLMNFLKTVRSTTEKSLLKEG", "assay": "Human whole blood assay (+ IFNγ/LPS)", "format": "cell-based", "conditions": "read-out: unbound IC90, human whole blood", "procedure": "Human whole blood was collected in sodium heparin and gently mixed. Then 25 mg/mL LPS (Sigma) and 100 ng/mL. IFNg (R&D) was added and transferred immediately to a 96-well U bottom plate, 200 mL per well. […] The final DMSO concentration was 0.5%. Following overnight incubation at 37° C., a 30 mL aliquot was precipitated with 270 mL acetonitrile/HPLC water (70:30), vortexed vigorously, and centrifuged at 3220×g for 15 minutes at 10° C. An aliquot of the supernatant organic solution was diluted in 0.1% Formic acid and spiked with stable labeled isotopes of kynurenine and tryptophan as internal standards prior to analysis. Kynurenine inhibition was determined by dividing the drug treated internal standard adjusted kynurenine counts by the positive control internal standard adjusted value. The no drug treated sample containing DMSO was used as the positive control. […] The IC50 and IC90 calculations were conducted in GraphPad Prism version 6.03.\nIn order to determine compound potency in a human cellular system, human whole blood was collected from 9 subjects. […] The unbound inhibitor IC50 and IC90 values were computed by applying a conversion for the unbound fraction value in whole blood, 0.419."}, "[3]": {"biological_target": "T1, TDO2 (Homo sapiens (Human), UniProt P48775)", "T1 sequence (P48775 whole entry)": "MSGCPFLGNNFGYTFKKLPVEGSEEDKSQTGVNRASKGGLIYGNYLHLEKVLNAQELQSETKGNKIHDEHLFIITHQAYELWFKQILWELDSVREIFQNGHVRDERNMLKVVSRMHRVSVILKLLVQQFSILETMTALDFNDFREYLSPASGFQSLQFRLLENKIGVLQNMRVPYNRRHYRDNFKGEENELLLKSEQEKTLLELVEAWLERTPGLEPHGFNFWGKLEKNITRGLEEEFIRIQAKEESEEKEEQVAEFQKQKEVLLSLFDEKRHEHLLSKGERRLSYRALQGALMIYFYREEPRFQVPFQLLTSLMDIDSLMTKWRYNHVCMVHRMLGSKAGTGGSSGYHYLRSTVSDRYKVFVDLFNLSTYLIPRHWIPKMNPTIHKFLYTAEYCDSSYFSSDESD", "assay": "Human TDO2 enzymatic assay", "format": "biochemical", "method": "The protocol was adapted from Dolusic et al, 2011. Briefly, the reaction mixture ([…]) contained TRIS buffer (50 mM, pH 7.5), methylene blue (0.125 mM), ascorbic acid (0.25 M), catalase (40 units/mL) and human recombinant TDO2 enzyme (prepared as described in Dolusic et al, 2011; 0.9 mg) with increasing concentrations of compounds (1.0 nM to […]). The reaction was run with single replicate. The reaction was initiated by the addition of the substrate L-tryptophan (1 mM)."}, "[4]": {"tested_on": "panel of receptors, ion channels, transporters and enzymes (64 targets in total)", "assay": "Cerep Wide Ligand Profile Screen", "conditions": "initial concentration of 200 μM", "method": "Three hits were noted (defined by a response greater that 50% of a maximal response) and follow up curves were performed by Cerep."}, "[5]": {"assay": "Passive permeability in RRCK cells", "format": "in vitro ADME, canine", "conditions": "dog, MDCK, read-out: intrinsic permeability, apical to basolateral (A to B)", "method": "In vitro Absorption: passive permeability was evaluated in Ralph-Russ canine kidney (RRCK) cells; high intrinsic permeability with an apical to basolateral (A to B) value of 25.5×10^−6 cm/sec. CNS Penetration: CNS distribution was investigated in male rats."}, "[6]": {"biological_target": "T1, TDO2", "assay": "TDO2 activity assay in A172 and THP-1 cells", "format": "cell-based", "method": "A172 cells were seeded in 96-well plates (12500 cells/well), treated with increasing concentrations of compounds and incubated for 16-18 h at 37° C., 5% CO2. Then TCA was added to the supernatant to stop the reaction. […] Kynurenine concentrations were determined by measuring absorbance at 480 nm. The reaction was run with single replicate.\nTHP-1 cells were stimulated with 2 ng/ml PMA for 24 h, then seeded in 96-well plates (100,000 cells/well), treated with 2 ng/ml PMA and increasing concentrations of compounds, and incubated for 24 h. Kynurenine concentrations were determined as described above. The reaction was run with single replicate."}}, "data": [{"smiles": "O=C1CC(c2c[nH]c3ccc(F)cc23)C(=O)N1", "note": "(racemic) [Compound 1, 3-(5-fluoro-1H-indol-3-yl)pyrrolidine-2,5-dione]", "values": [{"measurement": "% TGI (D15)", "setting": "[1]", "result": 38, "unit": "%"}, {"measurement": "% TGI (D17)", "setting": "[1]", "result": 41, "unit": "%"}, {"measurement": "% TGI (D20)", "setting": "[1]", "result": 34, "unit": "%"}, {"measurement": "IC90", "setting": "[2]", "result": 10.7, "unit": "µM"}, {"measurement": "IC50", "setting": "[3]", "result": "> 50", "unit": "µM"}, {"measurement": "hits (response greater than 50% of a maximal response) in off target panel", "setting": "[4]", "result": "Three"}, {"measurement": "Papp A→B", "setting": "[5]", "result": 255, "unit": "nm/s"}, {"measurement": "A172 and THP-1 cells TDO2 inhibition", "setting": "[6]; @50 μM", "result": "no inhibition"}, {"measurement": "inhibitory activity in any of the human or mouse TDO2 assays", "setting": "[6]; human biochemical and cellular, murine cellular, concentrations of up to 50 μM", "result": "did not display any significant inhibitory activity"}]}]}
